The nature of the experiment: Antioxidant activity assessed as […] by ABTS-spectrophotometric assay. The class given is functional. Further details: concentration or dose not given beside the values. To be noted: dose or concentration not given here.
As to `C/C(=N\NC(=O)c1ccc(NC(=O)c2ccccc2C(=O)O)cc1)c1ccc(NC(=O)c2ccccc2C(=O)O)cc1`, the inhibition was determined as 9.95%. On to `C/C(=N\N=C\c1ccccc1)c1ccc(NC(=O)c2ccccc2C(=O)O)cc1`, for which the inhibition stood at 12.9%. Next, `CC(=O)c1ccc(NC(=O)c2ccccc2C(=O)O)cc1`: 7.42%; `NNC(=O)c1ccc(NC(=O)c2ccccc2C(=O)O)cc1`: 55.2%.

On to `CCOC(=O)c1ccc(NC(=O)c2ccccc2C(=O)O)cc1`, for which the inhibition amounted to 4.09%. Take `COc1ccc(/C=N/NC(=O)c2ccc(NC(=O)c3ccccc3C(=O)O)cc2)cc1`: the inhibition came to 4.29%. Next, `COc1ccc(/C=N/N=C(\C)c2ccc(NC(=O)c3ccccc3C(=O)O)cc2)cc1`: 23%; `O=C(N/N=C/c1ccc(Cl)cc1)c1ccc(NC(=O)c2ccccc2C(=O)O)cc1`: 19.5%. Consider `C/C(=N\N=C(/C)c1ccc(NC(=O)c2ccccc2C(=O)O)cc1)c1ccccc1`, for which the inhibition worked out at 9.85%.

Turning to `C/C(=N\NC(=O)c1ccc(NC(=O)c2ccccc2C(=O)O)cc1)c1ccccc1`, the inhibition is 2.63%. Next, `C/C(=N\N=C\c1ccc(Cl)cc1)c1ccc(NC(=O)c2ccccc2C(=O)O)cc1`: 24.8%; `O=C(N/N=C/c1ccccc1)c1ccc(NC(=O)c2ccccc2C(=O)O)cc1`: 8.78%; `O=C(NN1C(=O)c2ccccc2C1=O)c1ccc(NC(=O)c2ccccc2C(=O)O)cc1`: 8.39%. With `C/C(=N\N=C(/C)c1ccc(NC(=O)c2ccccc2C(=O)O)cc1)c1ccc(NC(=O)c2ccccc2C(=O)O)cc1` the figure was 10.6%; with `C/C(=N\N1C(=O)c2ccccc2C1=O)c1ccc(NC(=O)c2ccccc2C(=O)O)cc1`, 4.19%.

For `C/C(=N\N)c1ccc(NC(=O)c2ccccc2C(=O)O)cc1`, the inhibition was determined as 18.2%.

Source of the values: ChEMBL document CHEMBL3046777, “Synthesis of new phenylcarbamoylbenzoic acid derivatives and evaluation of their in vitro antioxidant activity” (Med Chem Res, 2012).
